The results in this text go back to US11952328B2, “Selective ship inhibitors for treating disease” (THE RESEARCH FOUNDATION FOR THE STATE UNIVERSITY OF NEW YORK, priority 2018, dated 2024).

In this experiment the test system is NK cells and T cells. Put plainly: NK and T cell numbers, maturation and FasL expression by flow cytometry after two-day treatment. Type of experiment: in vivo, mice. An excerpt:
FIGS. 5A-5I show the effects of SHIP1 inhibitor as a chemotherapeutic. […] FIG. 5D and FIG. 5E show the representative histograms and box-and-whisker plots of FasL expression by NK cells from C56BL/6 (p=0.0002; Unpaired t test with Welch's correction) or RAG1−/− (p<0.0001; Mann-Whitney U test) tumor challenged, SHIP inhibitor or vehicle treated hosts. […] (NK cells p=0.0192; Unpaired t test with Welch's correction. T cells p=0.0659; Mann-Whitney U test). Additionally, FIGS. 5A-5G show the analysis by flow cytometry on day 3 after hosts receive SHIP inhibitor or vehicle for two consecutive days. NK cells are defined as NK1.1+CD3ε−. The graphs are representative of at least two independent experiments with at least four SHIP inhibitor and vehicle treated mice. […] Viability is expressed as frequency at a given concentration expressed as a percentage of solvent only treated cells. The kill curve summarizes pooled data from three independent experiments using six replicate wells/concentration with mean ±SEM indicated (n=18 per group. One-way ANOVA with Dunnett's multiple comparisons. 0 pM vs. 20 pM Adjusted p value =0.0001. 0 pM vs. 15 pM Adjusted p value =0.0001. 0 pM vs. 10 pM Adjusted p value =0.0001. 0 pM vs. 7.5 pM Adjusted p value =0.0001. 0 pM vs. 5 pM Adjusted p value =0.0001).
NK cells are able to directly kill target cells through several different mechanisms including both production of perforin and granzymes and induction of apoptosis via Fas-FasL signaling (Arase, H. et al., Fas-mediated cytotoxicity by freshly isolated natural killer cells. J Exp Med. (1995); 181: 1235-1238; Zamai, L. et al., Natural killer (NK) cell-mediated cytotoxicity: differential use of TRAIL and Fas ligand by immature and mature primary human NK cells. J Exp Med. (1998); 188: 2375-2380). […] SHIP1 was recently shown to be recruited to CD95/Fas to set a threshold for induction of Caspase 8, and thereby, a threshold for induction of apoptosis (Park, M. Y. et al., Impaired T-cell survival promotes mucosal inflammatory disease in SHIP1-deficient mice. Mucosal Immunol. (2014); 7: 1429-1439). This pathway might contribute to 3AC-mediated killing of lymphoma cells in a host-extrinsic fashion and, possibly, even to NK cell mediated clearance of tumor in vivo. To explore this possibility, whether 3AC induces FasL, the death ligand, on cytotoxic host cells present in the tumor site was examined. […] This is consistent with what has been previously reported with multiple myeloma, myeloid leukemias and T cell leukemia, and that others have recently reported in preB ALL (Park, M. Y. et al., Impaired T-cell survival promotes mucosal inflammatory disease in SHIP1-deficient mice. Mucosal Immunol. (2014); 7: 1429-1439; Brooks, R. et al., SHIP1 inhibition increases immunoregulatory capacity and triggers apoptosis of hematopoietic cancer cells. J Immunol. (2010); 184: 3582-3589; Fuhler, G. M. et al., Therapeutic potential of SH2 domain-containing inositol-5′-phosphatase 1 (SHIP1) and SHIP2 inhibition in cancer. Mol Med. (2012); 18: 65-75; Chen, Z. et al, Signalling thresholds and negative B-cell selection in acute lymphoblastic leukaemia. Nature. (2015)) . […] Therefore, the improved tumor clearance and survival following acute 3AC treatment in vivo may result from both a chemotherapeutic effect and enhanced immune control.
In general terms: A flow cytometer gives signals particle by particle.

Take `CC(C)CCC[C@@H](C)[C@H]1CC[C@H]2[C@@H]3CCC4C[C@H](N)CC[C@]4(C)[C@H]3CC[C@]12C` (stereo partly drawn) [Compound 3AC, 3-α-aminocholestane]: under “C57BL/6 mice, vs vehicle”, the “FasL expression, splenic NK cells” value is reported as “small, but significantly increased frequency”. The “terminal maturation of the peripheral NK cell compartment” value (spleen, naive or tumor challenged C57BL/6 hosts, vs vehicle) was “significantly increased”. The “number of NK cells at the tumor site in the peritoneal cavity” value (tumor challenged C57BL/6 hosts, vs vehicle) is on record as “significantly increased”. Besides, under “tumor challenged hosts, vs vehicle”, the “FasL expression of host NK cells and T cells at the tumor site” value was “profound acquisition of FasL”. The “number of splenic NK cells” value (two days of treatment vs vehicle) is on record as “decreased numbers”.
